Measurements published in patent US11266655B2, “Methods and compositions for treating urea cycle disorders” (Camp4 Therapeutics Corporation, priority 2019, dated 2022).
Where “and” joins values, the source holds several entries; their conditions need not be identical. Equal entries are not always repeated. Where two headings read alike, the source gives them in different places.

B1: GDF2 (BMP9): member of BMP family and the TGF-B superfamily (protein, UniProt Q9UK05 320-429, looked up)
Growth/differentiation factor …: SAGAGSHCQKTSLRVNFEDIGWDSWIIAPKEYEAYECKGGCFFPLADDVTPTKHAIVQTLVHLKFPTKVGKACCVPTKLSPISVLYKDDMGVPTLKYHYEGMSVAECGCR
B2: Wnt3a: secreted signaling protein of the WNT gene family (protein, UniProt P56704 19-352, looked up)
Protein Wnt-3a: SYPIWWSLAVGPQYSSLGSQPILCASIPGLVPKQLRFCRNYVEIMPSVAEGIKIGIQECQHQFRGRRWNCTTVHDSLAIFGPVLDKATRESAFVHAIASAGVAFAVTRSCAEGTAAICGCSSRHQGSPGKGWKWGGCSEDIEFGGMVSREFADARENRPDARSAMNRHNNEAGRQAIASHMHLKCKCHGLSGSCEVKTCWWSQPDFRAIGDFLKDKYDSASEMVVEKHRESRGWVETLRPRYTYFKVPTERDLVYYEASPNFCEPNPETGSFGTRDRTCNVSSHGIDGCDLLCCGRGHNARAERRREKCRCVFHWCCYVSCQECTRVYDVHTCK

Assays:
CPS1 [1] = assay: JAK inhibitors at 0.3 and 3 μM in primary human hepatocytes, CPS1 mRNA fold change; format: cell-based; conditions: fold change vs DMSO
Method: (§1) Additional small molecules that inhibit JAK1, JAK2, JAK3, or a combination of the JAK proteins were tested in primary human hepatocytes as described in Example 2. JAK inhibitors were tested in triplicate at 0.3 μM and 3 μM. The results are shown as the fold change (mRNA FC) in the mRNA levels of OTC and CPS1 genes after treatment compared to an untreated control (DMSO) and the standard deviation (SD).

OTC [2] = assay: JAK inhibitors at 0.3 and 3 μM in primary human hepatocytes, OTC mRNA fold change; format: cell-based; conditions: fold change vs DMSO
Method: as §1

urea cycle genes = assay: RNA-seq of primary human hepatocytes, compounds that modulate multiple urea cycle-related genes; format: cell-based; conditions: primary human hepatocytes, RNA-seq; for Up-regulated Genes: urea cycle-related genes significantly increased (Table 10)
ARG1 = assay: RNA-seq of compound-treated primary human hepatocytes, ARG1 expression; format: cell-based; conditions: primary human hepatocytes; for Fold change (Log 2) vs untreated, ARG1 expression: RNA-seq (Table 7)
OTC [3] = assay: RNA-seq of compound-treated primary human hepatocytes, OTC expression; format: cell-based; conditions: primary human hepatocytes, RNA-seq
CPS1 [4] = assay: RNA-seq of compound-treated primary human hepatocytes, CPS1 expression; format: cell-based; conditions: primary human hepatocytes; for CPS1 expression, Fold change (Log 2) vs untreated: RNA-seq; for Relative CPS1 level vs Untreated (±Standard Deviation): triplicate (Table 19, FIG. 11)
SLC25A15 = assay: RNA-seq of compound-treated primary human hepatocytes, SLC25A15 expression; format: cell-based; conditions: primary human hepatocytes; for Relative SLC25A15 level vs Untreated (±Standard Deviation): triplicate (Table 24, FIG. 16A-B)
NAGS = format: cell-based, human; conditions: for Relative NAGS level vs Untreated (±Standard Deviation): primary human hepatocytes, triplicate (Table 21, FIG. 13)
ASS1 = assay: RNA-seq of compound-treated primary human hepatocytes, ASS1 expression; format: cell-based; conditions: primary human hepatocytes; for Relative ASS1 level vs Untreated (±Standard Deviation): triplicate (Table 15, FIG. 7)

Molecule	CPS1 mRNA FC (CPS1 [1]; 0.3 uM)	CPS1 mRNA FC (CPS1 [1]; 3 uM)	OTC mRNA FC (OTC [2]; 0.3 uM)	OTC mRNA FC (OTC [2]; 3 uM)	also measured
CCc1cc(O)c(F)cc1-c1ccc2c(-c3nc4c([nH]3)CCN(C(=O)c3cnc(N5CCCCC5)cn3)C4)n[nH]c2c1 [PF-06263276]	1.05	1.03	1.16	1.46	–
FGF: Fibroblast Growth Factor-acidic (FGF-acidic), also known as FGF-1	–	–	–	–	number of urea cycle genes whose expression was significantly up-regulated (urea cycle genes): three; Up-regulated Genes (urea cycle genes): CPS1, OTC, ARG1; Fold change (Log 2) vs untreated, ARG1 expression (ARG1): 1.24 Log 2; OTC expression, Fold change (Log 2) vs untreated (OTC [3]): 0.56 Log 2; CPS1 expression, Fold change (Log 2) vs untreated (CPS1 [4]): 1.72 Log 2
Cc1cc(Nc2cc(CN3CCOCC3)c3nc(C)c(Cc4ccc(Cl)cc4F)n3n2)n[nH]1 [LY2784544/gandotinib]	1.11	1.39	1.19	1.63	–
CCS(=O)(=O)N1CC(CC#N)(n2cc(-c3ncnc4[nH]ccc34)cn2)C1 [Baricitinib]	1.4	1.38	2.56	2.85	–
Cc1cc(Nc2cc(CN3CCOCC3)c3nc(C)c(Cc4ccc(Cl)cc4F)n3n2)n[nH]1 [LYS2784544]	1.3	1.6	1.98	3.67	–
Cc1cnc(Nc2ccc(OCCN3CCCC3)cc2)nc1Nc1cccc(S(=O)(=O)NC(C)(C)C)c1 [Fedratinib]	0.93	0.95	1.09	1.49	–
EGF: Epidermal Growth Factor, a polypeptide growth factor	–	–	–	–	number of urea cycle genes whose expression was significantly up-regulated (urea cycle genes): three; Up-regulated Genes (urea cycle genes): CPS1, OTC, ARG1; Fold change (Log 2) vs untreated, ARG1 expression (ARG1): 1.46 Log 2; OTC expression, Fold change (Log 2) vs untreated (OTC [3]): 0.64 Log 2; CPS1 expression, Fold change (Log 2) vs untreated (CPS1 [4]): 1.93 Log 2
O=C(Nc1c[nH]nc1-c1nc2ccc(CN3CCOCC3)cc2[nH]1)NC1CC1 [AT9283]	1.53	1.05	1.56	0.56	Relative SLC25A15 level vs Untreated (±Standard Deviation) (SLC25A15; 1 μM): 1.78 ± 0.04; Relative SLC25A15 level vs Untreated (±Standard Deviation) (SLC25A15; 3 μM): 2.56 ± 1.37; Relative SLC25A15 level vs Untreated (±Standard Deviation) (SLC25A15; 10 μM): 2.94 ± 0.98; Relative ARGI level vs Untreated (±Standard Deviation) (ARG1; 10 μM, triplicate (Table 17, FIG. 9)): 1.70 ± 0.16; Relative NAGS level vs Untreated (±Standard Deviation) (NAGS; 0.3 μM): 1.43 ± 0.38; Relative NAGS level vs Untreated (±Standard Deviation) (NAGS; 1 μM): 1.49 ± 0.10; Relative NAGS level vs Untreated (±Standard Deviation) (NAGS; 3 μM): 1.38 ± 0.07; Relative ASS1 level vs Untreated (±Standard Deviation) (ASS1; 3 μM): 1.40 ± 0.43; Relative ASS1 level vs Untreated (±Standard Deviation) (ASS1; 10 μM): 2.48 ± 0.79; Relative CPS1 level vs Untreated (±Standard Deviation) (CPS1 [4]; 3 μM): 2.35 ± 0.15; Relative CPS1 level vs Untreated (±Standard Deviation) (CPS1 [4]; 10 μM): 1.53 ± 0.33
CN1C/C=C/CCOc2cccc(c2)-c2ccnc(n2)Nc2cccc(c2)C1 [SB1317/TG02]	1.05	1.03	1.05	0.64	Relative SLC25A15 level vs Untreated (±Standard Deviation) (SLC25A15; 0.3 μM): 1.36 ± 0.24; Relative SLC25A15 level vs Untreated (±Standard Deviation) (SLC25A15; 3 μM): 2.70 ± 0.34; Relative SLC25A15 level vs Untreated (±Standard Deviation) (SLC25A15; 10 μM): 2.71 ± 0.09; Relative ASS1 level vs Untreated (±Standard Deviation) (ASS1; 1 μM): 1.34 ± 0.12; Relative ASS1 level vs Untreated (±Standard Deviation) (ASS1; 3 μM): 1.90 ± 0.19; Relative ASS1 level vs Untreated (±Standard Deviation) (ASS1; 10 μM): 1.92 ± 0.18
CCS(=O)(=O)N1CCN(c2ccc(Nc3ncc(C(N)=O)c(NC4CC4)n3)cc2)CC1 [cerdulatinib]	1.58	2.39	2.56	1.89	–
O=C(Nc1nc2cccc(-c3ccc(CN4CCS(=O)(=O)CC4)cc3)n2n1)C1CC1 [GLPG0634/Filgotinib]	1.08	1.56	1.12	2.11	–
N#CCC1(n2cc(-c3ncnc4[nH]ccc34)cn2)CN(C2CCN(C(=O)c3ccnc(C(F)(F)F)c3F)CC2)C1 [itacitinib]	1.84	2.17	3.56	3.41	–
NC(=O)c1cnc2[nH]ccc2c1N[C@@H]1[C@@H]2CC3C[C@H]1C[C@@](O)(C3)C2 [Peficitinib]	1.31	2.28	2.38	3.49	–
COc1cc2ncnc(Nc3ccc(O)cc3)c2cc1OC [JANEX-1]	0.86	1.01	0.85	1.1	–
O=C(Nc1ccc(-c2ccnc(Nc3ccc(N4CCOCC4)cc3)n2)cc1)C1CCCN1 (stereo not shown) [XL019]	0.91	0.81	1.09	1.02	–
CC[C@@](C)(Nc1ccnc(-c2c[nH]c3ncccc23)n1)C(=O)NCC(F)(F)F [Decernotinib]	1.07	1.28	1.01	2.18	–
N#CC[C@H](C1CCCC1)n1cc(-c2ncnc3[nH]ccc23)cn1 [ruxolitinib]	1.66	1.79	2.65	4.17	–
CCn1c(C(=O)N(C2CC2)C2CC2)cc2c3c(ncn3C)c(Nc3cc(C)n(C)n3)nc21 [BMS-911543]	1.31 and 1.03	1.65	1.94	2.7	–
B1	–	–	–	–	number of urea cycle genes whose expression was significantly up-regulated (urea cycle genes): five; Up-regulated Genes (urea cycle genes): ASS1, CPS1, NAGS, ARG1, SLC25A15; Fold change (Log 2) vs untreated, SLC25A15 expression (SLC25A15; RNA-seq (Table 8)): 1.09 Log 2; Fold change (Log 2) vs untreated, ARG1 expression (ARG1): 1.79 Log 2; Fold change (Log 2) vs untreated, NAGS expression (NAGS): 0.63 Log 2; Fold change (Log 2) vs untreated, ASS1 expression (ASS1; RNA-seq (Table 4)): 1.34 Log 2; CPS1 expression, Fold change (Log 2) vs untreated (CPS1 [4]): 3.46 Log 2
B2	–	–	–	–	number of urea cycle genes whose expression was significantly up-regulated (urea cycle genes): four; Up-regulated Genes (urea cycle genes): CPS1, OTC, ARG1, SLC25A15; Fold change (Log 2) vs untreated, ARG1 expression (ARG1): 2.07 Log 2; OTC expression, Fold change (Log 2) vs untreated (OTC [3]): 0.92 Log 2; CPS1 expression, Fold change (Log 2) vs untreated (CPS1 [4]): 2.6 Log 2
